Results: US20080039499A1, “Chemical Compounds” (priority 2004, published 2008)

System: MCP-1 Mediated Calcium Flux in THP-1 Cells
Assay: MCP-1 mediated calcium flux in THP-1 cells (FLIPR)
Format: cell-based, human
Details: stimulation of THP-1 cells; from dose response curves; read-out: approximate EC50 of hMCP-1 for rise in [Ca2+]i
Description: a) MCP-1 Mediated Calcium Flux in THP-1 Cells
The human monocytic cell line THP-1 was grown in a synthetic cell culture medium RPMI 1640 supplemented with 10% foetal calf serum, 6 mM glutainine and Penicillin-Streptomycin (at 50 IU/ml penicillin, 50 μg streptomycin/ml, Gibco BRL). THP-1 cells were washed in assay buffer comprising of HBSS with Ca^2+ and Mg^2+ (without phenol red) (Gibco BRL)+20 mM HEPES+0.71 mg/ml Propenecid+2 mls/litre CaCl2 1M (BDH)+0.3 mg/ml BSA (Sigma) pH 7.4 and resuspended in the same buffer at a density of 1×10^6 cells/ml. The cells were then loaded with assay buffer+[…] FLUO-4 (molecular probes) for 40 min at 37° C., washed twice in assay buffer, and resuspended at 2×10^5 cells/ml. 100 μl of the cell suspension was added to the wells of black clear-bottomed 96 well plates, to give 2×10^4 cells/well. Cells were pelleted by centrifugation and washed with assay buffer. 100 ul of buffer+50 ul of compound was added to wells and incubated for 20 mins at (37° C.). Fluorescence was recorded using a FLIPR (FLuorometric Imaging Plate Reader—Molecular Devices). Cells were stimulated by addition of hMCP-1 to the wells.
Stimulation of THP-1 cells with hMCP-1 induced a rapid, transient rise in [Ca^2+]i in a specific and dose dependent manner. Dose response curves indicated an approximate EC50 of 4 nm. […]

EC50: ~4 nM
Substance: hMCP-1: human Monocyte chemoattractant protein-1, a C—C chemokine and CCR2 ligand, used to stimulate THP-1 cells
